Test results published in publication PMC12648368 (British Journal of Clinical Pharmacology, 2025).
“Also recorded” adds a separate entry of the source. Like-named read-outs stand apart in the source and are kept apart here.

Columns and labels:
[1] = Population pharmacokinetic model of plasma atazanavir and ritonavir concentrations, DERIVE study (ATV/r with or without rifampicin); conditions: for Fold‐change in CL for ATV/r BID + RIF: ATV/r 300/100 mg BID with rifampicin; for Vd / bioavailability / clearance: human, plasma, oral; for Fold‐change in CL for ATV/r QD + RIF: rifampicin 600 mg QD added to ATV/r; for Effect of increasing rifampicin dose on clearance, bioavailability / pharmacokinetics: rifampicin 1200 mg QD vs 600 mg QD, ATV/r BID
plasma proteins = conditions: cited from earlier work
[2] = Final atazanavir model applied to atazanavir-only data (without ritonavir) of the ACTG A5231 study
Protocol: Atazanavir was administered with or without rifampicin in three periods: 300 mg BID for 8 days (period 1), 300 mg BID with rifampicin 600 mg QD for 11 days (period 2) and 400 mg BID with rifampicin 600 mg QD for 8 days (period 3).[30] Pharmacokinetic sampling was conducted at the end of each period, with blood collected 15 min predose and at 1‐, 2‐, 3‐, 4‐, 5‐, 6‐, 8‐, 10‐, 12‐, and 24‐h postdose. Plasma samples were analysed at the University of Alabama using HPLC with UV detection (LLOQ 0.025 mg/L).[30]
The final atazanavir model, developed with DERIVE data, was applied to the A5231 dataset. We made the following adjustment to our model to account for the differences between the two studies.
All fixed parameters are estimates from DERIVE study population.

HIV‐1 = conditions: against HIV‐1; cited from earlier work
[3] = Effect-compartment model of intracellular PBMC concentrations, DERIVE study; type: in vivo, human; conditions: for Equilibration half‐life, t 1/2 (plasma to PBMC) / half-life / Kp: PBMC effect compartment, estimate (95% CI); for half-life / Kp: human, oral; for half-life: PBMC, read-out: Equilibration half‐life, t 1/2 (plasma to PBMC) (converted); for Kp: read-out: Pseudo‐partition coefficient, PPC (ratio of drug in PBMC to plasma)
Protocol: Pharmacokinetic sampling was conducted over four visits. […] The rifampicin dose was increased to 1200 mg once daily (QD) for 1 week. […] Dolutegravir was maintained for an additional 2 weeks. […] Blood samples were centrifuged and stored at -80 °C prior to shipment and assay at the University of Cape Town, where drug concentrations were measured using high-performance liquid chromatography with tandem mass spectrometry (HPLC MS/MS). […] Atazanavir and ritonavir pharmacokinetic models were separately developed using […] data. We tested one- and two-compartment disposition models with linear elimination, and delayed absorption modelled by a lag time or series of transit compartments. PBMC concentrations were modelled using a hypothetical effect compartment connected to the central compartment of the plasma model. An equilibration half-life (t1/2) and a pseudopartition coefficient (PPC) were used to parameterize the rate of drug entry into the PBMC compartment and its accumulation ratio between the PBMC and plasma, respectively (Figure S1).

[4] = in vivo; cited from earlier work
[5] = set-up: method as in earlier work; conditions: fixed in the previously published model; cited from earlier work
clinical = conditions: human, in vivo
[6] = estimate (95% CI), listed as atazanavir
[7] = Inter compartmental clearance, typical participant 67 kg, fat‐free mass 42 kg, estimate (95% CI)
[8] = typical participant 67 kg, fat‐free mass 42 kg, estimate (95% CI)

## COC(=O)N[C@H](C(=O)N[C@@H](Cc1ccccc1)[C@@H](O)CN(Cc1ccc(-c2ccccn2)cc1)NC(=O)[C@@H](NC(=O)OC)C(C)(C)C)C(C)(C)C [Atazanavir, atazanavir]
[1]; estimate (95% CI)
  Fold‐change in CL for ATV/r BID + RIF: 2.03 (1.82‐2.25) ‐fold
  BOV in F: 48.2 (40.7‐53.6) % CV
  BOV in MTT: 59.4 (49.3‐73.6) % CV
  Between occasion variability (BOV) in k a: 97.9 (80.8‐125) % CV
  Between subject variability in clearance: 27.6 (19.7‐36.7) % CV
  Between visit variability in clearance: 17.5 (14.4‐24.5) % CV
  Change in F for ATV/r QD + RIF: −52.5 (−62.5 −41.4) %
  Change in k a due to RIF: −67.3 (−76.2 −53.2) %
  Mean absorption transit time, MTT: 0.499 (0.429‐0.574) h
  Fold‐change in CL for ATV/r QD + RIF: 3.05 (2.67‐3.45) ‐fold
[1]; [6]
  Fold‐change in CL for ATV/r BID + RIF: 2 ‐fold
  Fold‐change in CL for ATV/r QD + RIF: 3 ‐fold
[1]; ATV/r 300/100 mg QD without rifampicin, typical participant 67 kg, fat‐free mass 42 kg, typical estimate (95% CI)
  Clearance, CL: 7.57 (6.42‐9.06) L/h
[1]; ATV/r BID with standard dose rifampicin
  Effect of doubling ATV/r dosing frequency on bioavailability: restored atazanavir bioavailability
[1]; co-medication tenofovir disoproxil fumarate
  Effect of TDF on clearance and bioavailability: affected neither
[1]; fixed in the model
  Transit compartments, NN: 10 Fixed n
[1]
  Vd: 77.5 L
  bioavailability: 100%
  Effect of increasing rifampicin dose on clearance, bioavailability / pharmacokinetics: no significant effect
[1]; [7]
  clearance: 52.2 mL/min
[1]; rifampicin added to standard ATV/r QD regimen
  Reduction of bioavailability by rifampicin: 53%
[1]; [8]
  Volume of distribution (peripheral compartment): 42.1(26.6‐79.0) L
Plasma proteins
  Bound to plasma proteins: about 86%
[2]; A5231 all PK visits vs ATV/r without rifampicin (DERIVE visit 1), estimate (95% CI)
  Fold-change in CL due to absence of ritonavir: 2.13 (1.88 – 2.34) -fold
[2]; human, in vivo
  BOV in F: 58.3 (46.4 – 73.5) % CV
  BOV in MTT: 48.1 (36.9 – 63.4) % CV
  Between occasion variability (BOV) in k a: 101 (fixed) % CV
  Between subject variability in clearance: 18.8 (13.7 – 24.4) % CV
  Change in F with rifampicin: -55.3 (-64.0 – -46.2) %
  Change in ka with rifampicin: -70.8 (fixed) %
  Clearance, CL: 7.55 (fixed) L/h
  MTT longer in A5231 compared to DERIVE: 2.5 ‐fold
  Mean absorption transit time, MTT: 1.38 (1.15 – 1.61) h
  Reduction in bioavailability when rifampicin was coadministered: 55%
  Transit compartments, NN: 10 (fixed) n
  Vd: 77.3 L
  Volume of distribution (peripheral compartment): 48.9 (fixed) L
  bioavailability: 100%
  clearance: 58.5 mL/min
HIV‐1
  Protein‐adjusted in vitro 90% inhibitory concentration (PA‐IC90): 0.014 µg/mL
[3]
  Equilibration half‐life, t 1/2 (plasma to PBMC): 0.963 (0.546‐1.51) h
  half-life: ~1 h
  Kp: 0.653
[3]; addition of rifampicin to the regimen
  Effect of rifampicin on PBMC equilibration t 1/2 and PPC (intracellular accumulation): did not affect the ratio of atazanavir concentration between PBMCs and plasma; also recorded: neither of which were affected; also recorded: does not affect the intracellular accumulation of atazanavir

## CC(C)c1nc(CN(C)C(=O)N[C@H](C(=O)N[C@@H](Cc2ccccc2)C[C@H](O)[C@H](Cc2ccccc2)NC(=O)OCc2cncs2)C(C)C)cs1 [Ritonavir, ritonavir]
[4]
  Time to steady‐state concentrations: about 2 weeks
[1]; ATV/r QD + rifampicin, relative to ATV/r without rifampicin
  Bioavailability decreased to, with rifampicin: 31%
[1]; estimate (95% CI)
  BOV in F: 55.5 (48.1‐63.8) % CV
  BOV in MTT: 43.6 (37.7‐51.6) % CV
  Between occasion variability (BOV) in k a: 82.3 (67.3‐99.1) % CV
  Between subject variability in clearance: 16.4 (12.3‐21.8) % CV
  Change in F for ATV/r BID + RIF: −33.3 (−46.6 −10.9) %
  Change in F for ATV/r QD + RIF: −68.8 (−75.2 −58.5) %
  Mean absorption transit time, MTT: 0.483 (0.428‐0.545) h
  Transit compartments, NN: 12.3 (6.64‐17.7) n
[1]
  Vd: 55.4 L
  bioavailability: 100%
  Effect of increasing rifampicin dose on clearance, bioavailability / pharmacokinetics: no further effect
[1]; Clearance, CL, ATV/r 300/100 mg QD without rifampicin, typical participant 67 kg, fat‐free mass 42 kg, typical estimate (95% CI)
  clearance: 161 mL/min
[1]; [7]
  clearance: 26 mL/min
[1]; [8]
  Volume of distribution (peripheral compartment): 70.1 (39.7‐125) L
[3]
  Equilibration half‐life, t 1/2 (plasma to PBMC): 1.40 (1.38‐1.63) h
  half-life: ~1 h
  Kp: 1.68

## CO[C@H]1/C=C/O[C@@]2(C)Oc3c(C)c(O)c4c(O)c(c(/C=N/N5CCN(C)CC5)c(O)c4c3C2=O)NC(=O)/C(C)=C\C=C\[C@H](C)[C@H](O)[C@@H](C)[C@@H](O)[C@@H](C)[C@H](OC(C)=O)[C@@H]1C [rifampicin]
[5]
  Unbound fraction of rifampicin, fu: 0.2 (fixed) fraction
Estimate (95% CI)
  BOV in MTT: 46.8 (40.0 – 56.8) % CV
  BOV in ka: 104 (85.3 – 136) % CV
  Between occasion variability (BOV) in F: 22.0 (17.9 – 26.3) % CV
  Between subject variability in clearance: 27.7 (22.1 – 35.2) % CV
  Mean absorption transit time, MTT: 0.502 (0.447 – 0.558) h
  Transit compartments, NN: 20.3 (15.8 – 25.9) n
human, in vivo
  Bioavailability, F: 1 (fixed) fraction
clinical
  Km: 4.9 µg/mL
  Vd: 44.7 L
  clearance: 550 mL/min
